The species named for one assay is Rattus norvegicus. Nature of the assay: Testosterone Eurofins-Panlabs radioligand binding assay. The arrangement: ligand concentration 1.5 nM. Conditions: Compound concentration 10.0 uM.
The target of assay [1] is Cholecystokinin receptor type A (Homo sapiens) (UniProt P32238). Nature of the assay: Inhibition of Cholecystokinin CCK1 (CCKA) at 10 µM in the Eurofins-Panlabs radioligand binding assay (Eurofins_assay_218020).
Assay [2] addresses T1, Muscarinic acetylcholine receptor M5 (Homo sapiens) (UniProt P08912).
T1 sequence (whole entry): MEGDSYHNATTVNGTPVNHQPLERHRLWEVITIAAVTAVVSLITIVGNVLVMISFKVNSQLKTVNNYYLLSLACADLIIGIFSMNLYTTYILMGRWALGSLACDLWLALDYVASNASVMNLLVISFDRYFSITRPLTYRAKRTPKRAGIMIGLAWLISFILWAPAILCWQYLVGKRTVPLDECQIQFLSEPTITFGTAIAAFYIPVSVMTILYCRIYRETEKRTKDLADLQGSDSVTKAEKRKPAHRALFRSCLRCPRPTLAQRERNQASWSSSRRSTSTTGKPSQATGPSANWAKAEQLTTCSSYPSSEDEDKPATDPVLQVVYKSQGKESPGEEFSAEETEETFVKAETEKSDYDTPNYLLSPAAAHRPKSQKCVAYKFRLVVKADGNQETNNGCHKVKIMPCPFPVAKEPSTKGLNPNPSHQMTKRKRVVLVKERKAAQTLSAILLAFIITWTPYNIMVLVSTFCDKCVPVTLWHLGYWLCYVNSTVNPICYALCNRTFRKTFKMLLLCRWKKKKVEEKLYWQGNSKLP
The experiment in a line: Inhibition of Muscarinic M5 at 10 µM in the Eurofins-Panlabs radioligand binding assay (Eurofins_assay_253010). The arrangement: ligand concentration 0.8 nM. The conditions noted are these: Compound concentration 10.0 uM.

Assay [3] concerns the target Galanin receptor type 2 (Homo sapiens) (UniProt O43603). Nature of the assay: Galanin GAL2 Eurofins-Panlabs radioligand binding assay. The arrangement: ligand concentration 0.02 nM. Conditions: Compound concentration 10.0 uM.
The target in assay [4] is Prostaglandin D2 receptor (Homo sapiens) (UniProt Q13258). The experiment in a line: Prostanoid DP Eurofins-Panlabs radioligand binding assay. Conditions: Compound concentration 10.0 uM.
The target in assay [5] is Somatostatin receptor type 4 (Homo sapiens, UniProt P31391). The experiment in a line: Somatostatin sst4 Eurofins-Panlabs radioligand binding assay. The arrangement: ligand concentration 0.1 nM, non-specific ligand with concentration 1 µM Somatostatin-14, incubation time 45 min, incubation temperature 25 °C.

In ChEMBL document CHEMBL4507292 (2021) one finds inhibition and IC50 data, which are given here for one molecule.

Sequence of Somatostatin receptor type 4 (P31391 whole entry): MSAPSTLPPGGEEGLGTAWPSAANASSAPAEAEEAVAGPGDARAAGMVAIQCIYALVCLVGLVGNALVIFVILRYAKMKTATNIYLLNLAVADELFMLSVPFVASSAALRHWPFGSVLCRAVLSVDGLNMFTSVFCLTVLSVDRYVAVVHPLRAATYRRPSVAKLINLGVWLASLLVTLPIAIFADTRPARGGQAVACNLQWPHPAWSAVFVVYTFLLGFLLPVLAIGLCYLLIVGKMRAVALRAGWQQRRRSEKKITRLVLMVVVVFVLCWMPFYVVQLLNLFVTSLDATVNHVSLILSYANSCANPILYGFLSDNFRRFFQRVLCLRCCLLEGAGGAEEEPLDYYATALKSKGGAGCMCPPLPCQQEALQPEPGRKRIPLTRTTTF
Sequence of Cholecystokinin receptor type A (Homo sapiens) (P32238 whole entry): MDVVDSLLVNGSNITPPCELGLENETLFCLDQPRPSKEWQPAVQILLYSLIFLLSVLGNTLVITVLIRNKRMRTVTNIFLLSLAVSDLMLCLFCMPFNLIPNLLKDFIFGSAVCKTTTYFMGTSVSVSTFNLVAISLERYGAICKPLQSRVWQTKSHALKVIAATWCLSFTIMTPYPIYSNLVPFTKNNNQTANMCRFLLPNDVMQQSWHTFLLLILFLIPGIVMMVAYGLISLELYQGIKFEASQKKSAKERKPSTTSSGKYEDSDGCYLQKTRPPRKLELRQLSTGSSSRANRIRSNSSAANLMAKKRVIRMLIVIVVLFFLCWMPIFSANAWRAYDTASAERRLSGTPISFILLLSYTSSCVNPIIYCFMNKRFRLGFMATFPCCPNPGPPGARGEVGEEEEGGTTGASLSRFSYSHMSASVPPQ
Sequence of Galanin receptor type 2 (Homo sapiens) (O43603 whole entry): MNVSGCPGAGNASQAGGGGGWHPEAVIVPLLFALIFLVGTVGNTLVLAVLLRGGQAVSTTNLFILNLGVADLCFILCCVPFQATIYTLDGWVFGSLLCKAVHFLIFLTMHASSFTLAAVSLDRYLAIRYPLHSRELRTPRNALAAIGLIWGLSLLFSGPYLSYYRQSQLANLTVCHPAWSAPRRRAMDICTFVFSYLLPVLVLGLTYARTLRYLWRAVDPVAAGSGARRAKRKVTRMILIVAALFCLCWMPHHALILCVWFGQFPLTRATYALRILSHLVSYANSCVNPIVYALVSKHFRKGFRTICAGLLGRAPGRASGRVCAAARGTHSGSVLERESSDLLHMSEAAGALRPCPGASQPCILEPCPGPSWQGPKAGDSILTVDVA
Sequence of Prostaglandin D2 receptor (Homo sapiens) (Q13258 whole entry): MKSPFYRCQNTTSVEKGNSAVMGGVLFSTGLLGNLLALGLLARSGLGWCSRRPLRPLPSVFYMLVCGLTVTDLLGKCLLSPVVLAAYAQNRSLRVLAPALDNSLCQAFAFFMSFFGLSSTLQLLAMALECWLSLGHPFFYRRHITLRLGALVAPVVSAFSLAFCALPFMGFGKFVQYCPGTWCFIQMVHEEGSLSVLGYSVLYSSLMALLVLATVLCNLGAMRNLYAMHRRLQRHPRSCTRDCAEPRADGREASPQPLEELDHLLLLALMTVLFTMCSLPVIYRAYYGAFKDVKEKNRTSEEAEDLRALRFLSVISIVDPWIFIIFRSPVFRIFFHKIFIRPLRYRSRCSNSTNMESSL

With `O=C(O)c1cc(-c2ccc(C3CCNCC3)cc2)c2ccc(-c3ccc(C(F)(F)F)cc3)cc2c1` [PPTN], the inhibition in the assay filed under Rattus norvegicus was 26%; in assay [1], 10%; in assay [2], 39%; in assay [3], 31%; in assay [4], 12%; in assay [5] (Compound concentration 0.01 uM), -5%. Also, the results for the inhibition in assay [5] (Compound concentration 0.1 uM), in assay [5] (Compound concentration 1.0 uM) and in assay [5] (Compound concentration 10.0 uM) were 7%, 17% and 65%, respectively. In assay [5], this molecule returned an IC50 of 5.3 µM.

By inhibition is commonly meant the change of the read-out against control, counted positive when it falls. As usually defined, the IC50 is the concentration needed to halve the response being measured. Low values mean greater potency, high ones weaker potency.
